Source: patent publication US20220378761A1, “PAPD5 Inhibition As A Treatment For Dyskeratosis Congenita, Aplastic Anemia And Myelodysplastic Syndrome Caused By Reduced Telomerase RNA Levels” (The Regents of The University of Colorado, A Body Corporate, priority 2019, published 2022)

How the values were obtained:
[1] = cited from earlier work
[2] = tested on: DKC1_A353V hESCs; experiment: Whole-genome RNA-sequencing of DKC1_A353V hESCs; format: cell-based, Homo sapiens; details: 1 μM RG7834 vs DMSO
Experimental: The present inventors investigated if treatment with RG7834 was sufficient to reduce DNA damage signaling arising from eroded telomeres, a hallmark of DC.
RNA-seq of transcriptome from DMSO or RG7834 treated DKC1_A353V cells: RNA was extracted from DMSO or RG7834 (1 μM) treated DKC1 mutant cells using Trizol as per manufacturer's instructions and contaminating DNA was removed using TURBO DNase. 1 μg of total RNA in triplicate from each condition was depleted of ribosomal RNA using Ribocop rRNA depletion kit V3 (Lexogen). 50 ng of recovered total RNA was used for strand-specific library preparation using the Rapid Directional RNA-seq kit 2.0 (Perkin Elmer) as per manufacturer's protocol. Prepared libraries were sequenced on an Illumina HiSeq using 2×150 paired end sequencing kit. Demultiplexed reads were checked for quality using the FastQC tool and subjected to adapter trimming using Trimmomatic. Trimmed reads were aligned to the hg38 p13 version 99 human genome release and annotation obtained from ENSEMBL using the STAR alignment software. Aligned files were sorted according to chromosomal coordinate and compressed to BAM files. HTSeq was used to count the number of reads for each gene from BAM files. Read counts were used for downstream analysis for changes in gene expression using DESeq2. […]

[3] = target: T1, PAPD5 (Homo sapiens, UniProt Q8NDF8); experiment: 3′ end sequencing of TERC (oligoadenylation) in DKC1_A353V hESCs; format: cell-based
T1 construct: endogenous in cells; host or cells: DKC1_A353V mutant hESCs (H1; WA01), made by CRISPR/Cas9 editing
T1 sequence (Q8NDF8 whole entry): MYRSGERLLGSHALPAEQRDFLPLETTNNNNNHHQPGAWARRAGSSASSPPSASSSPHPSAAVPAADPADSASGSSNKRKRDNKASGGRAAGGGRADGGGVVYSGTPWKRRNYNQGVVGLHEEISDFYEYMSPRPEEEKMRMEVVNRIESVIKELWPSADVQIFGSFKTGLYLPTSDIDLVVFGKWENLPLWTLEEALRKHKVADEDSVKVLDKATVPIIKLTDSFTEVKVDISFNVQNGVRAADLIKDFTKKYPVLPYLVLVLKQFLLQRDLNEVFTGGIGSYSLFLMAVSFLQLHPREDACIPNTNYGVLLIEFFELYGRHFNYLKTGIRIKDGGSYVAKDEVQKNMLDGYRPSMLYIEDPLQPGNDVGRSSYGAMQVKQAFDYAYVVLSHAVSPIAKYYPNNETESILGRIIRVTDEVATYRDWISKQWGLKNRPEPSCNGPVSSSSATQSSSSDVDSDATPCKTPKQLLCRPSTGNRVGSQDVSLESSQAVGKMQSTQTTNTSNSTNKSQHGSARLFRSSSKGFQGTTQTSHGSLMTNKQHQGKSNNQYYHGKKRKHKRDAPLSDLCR
Experimental: (§1) Treatment of DKC1_A353V hESCs with RG7834 caused a >15-fold reduction in the 3′-end oligoadenylation of TERC, indicating efficient PAPD5 inhibition in these cells (FIG. 2A).
3′ end sequencing of TERC: Briefly, ˜100 ng of DNase-treated, rRNA-depleted, Antarctic phosphatase treated RNA was ligated with 40 pmol of barcoded appendix (2 reactions per sample) using T4 RNA Ligase I and 10 mM ATP. Enzymatic reaction was cleaned up using RNA clean and concentrator kit (Zymo). 4 μl of […] from each reaction (8 μl total RNA) was used for cDNA synthesis using a primer complementary to the appendix. The cDNA product was then used as template for 5′ RACE using TERC-specific barcoded primers and a universal primer. The RACE product was size-selected on a 1% agarose gel and fragments ˜100-300 bp were gel purified and amplified using Illumina sequencing primers. Libraries were multiplexed and sequenced on an Illumina NextSeq sequencer (mid-output setting and 1×150 cycle kit). Sequenced reads were filtered using both the TERC primer and the appendix barcode and reads with 100% sequence identify were used for downstream analysis. TERC reads with […] at the mature end (for e.g., UGCAA, UGCAAA, etc.) were quantified as oligoadenylated for analysis.

[4] = tested on: DKC1_A353V hESCs; experiment: Colony forming culture assay of definitive hematopoietic progenitors; format: cell-based, Homo sapiens; details: day 28 of differentiation, DKC1_A353V cells, different concentrations
Text: Because bone marrow failure is the leading cause of death in DC, the present inventors wanted to analyze the consequences of RG7834 treatment in DKC1_A353V cells during definitive hematopoietic differentiation. There are no animal models that faithfully recapitulate the hematopoietic defects observed in patients harboring pathogenic mutations in DKC1 or PARN; therefore, the present inventors followed established protocols of hESC differentiation into hematopoietic lineages. These protocols recapitulate, in vitro, the major aspects of blood development in vivo, a strategy shown to accurately model key aspects of DC. A schematic of the protocol is depicted in FIG. 6. […] These observations provide compelling evidence that chemical inhibition of PAPD5, in addition to rescuing telomerase function, is sufficient to increase definitive, multilineage, hematopoietic potential in DKC1_A353V mutants.
Colony forming culture assays: Colony assays were performed using MethoCult H4034 Optimum (StemCell Technologies, Vancouver, Canada). […] Cells were maintained in 5% CO2 and 5% O2 incubator for 8 days and then placed into 1 ml of MethoCult in which the colonies forming were measured after 12 days. […]

[5] = tested on: TERT; experiment: TERT quantification by qRT-PCR in DKC1_A353V hESCs; format: cell-based, Homo sapiens; details: up to 30 days
Text: as §1
RNA extraction and Quantitative real-time PCR: Total RNA was isolated using Trizol (Invitrogen) in accordance with the manufacturer's instructions followed by Turbo DNA-free DNase (Invitrogen) treatment. RNA was converted into cDNA using Superscript III First Strand synthesis kit (Invitrogen) following manufacturer's instructions. Real-time PCR was performed using Evagreen master mix (Lambda Biotech, St. Louis, Mo.) on a StepOne Plus instrument DNase treatment (Thermo Fisher Scientific). For TERC analysis, Brilliant II 1-step qRT-PCR master mix (Agilent, Santa Clara, Calif.) was used following manufacturer's instructions. Reactions were performed in triplicates with 100 ng of RNA per reaction and used gene-specific (for/rev) primers were as follows: […]

COCCCOc1cc2c(cc1OC)-c1cc(=O)c(C(=O)O)cn1[C@H](C(C)C)C2 [RG7834]
activity in cell culture against the HPV B infection [1]: highly active
changes in gene expression [2]: did not lead to significant changes in gene expression
reduction in the 3′-end oligoadenylation of TERC [3]: > 15 fold
definitive hematopoietic colony potential [4]: significantly increased the hematopoietic potential
levels of telomerase reverse transcriptase (TERT) [5]: remained unchanged
